Here are results for four compounds from patent US10206897B2 (Board of Regents of the University of Nebraska, priority 2000, dated 2019).

In data set [1] the test system is brain microvessel endothelial cells (BMEC). Briefly: prostaglandin E2 release from BMEC monolayers exposed to bacterial lipopolysaccharide. The data set is classed as cell-based. The source says:
In an exemplary study primary cultured brain microvessel endothelial cells (BMEC) were used as an in vitro cell culture model to examine inflammation. These cells have been used previously to examine the effects of the inflammatory mediators such as tumor necrosis factor (TNF), and bacterial lipopolysaccharide (LPS). See Mark, K. S. and Miller, D. W. increased Permeability of Prim my Cultured Brain Microvessel Endothelial Cell Monolayers Following Tumor Necrosis Factor-Alpha Exposure. Life Sci. 64: 1941-1953, 1999, which is herein incorporated by reference in its entirety. See also Mark, K. S., Trickier, W. J., and Miller, D. W. Role of Cyclooxygenase-2 and Prostaglandins in the TNF-a Induced Changes in Brain Microvessel Endothelial Cell Permeability. J. Pharmacol. Exp. Ther. 297: I 051-1058, 200 I, which is herein incorporated by reference in its entirety. See also McGuire, T. R., Hoie, E., Trickier, […]., and Miller, D. W. Release of Prostaglandin E-2 in Bovine Brain Endothelial Cells After Exposure to Three Unique Forms of the Antifuingal Drug Amphotericin: Role of COX-2 in Amphotericin-Induced Fever. Life Sci. (accepted for publication), which is herein incorporated by reference in its entirety. These studies indicate that following exposure to either tumor necrosis factor (TNF) or bacterial lipopolysaccharide (LPS), there is an increased expression of cyclooxygenase 2 (COX 2). […] Treatment with bacterial lipopolysaccharide (LPS) alone caused significant increases in prostaglandin E2 (PGE2) release from the cells over the 12 hour exposure period (approximately 1a-fold increase over control).

For data set [2], the system named is C2Cl2 Muscle Cells. Briefly: lactic acid levels in and release from C2Cl2 muscle cells under normal and hypoxic conditions. The format is cell-based, mouse. The conditions noted are these: 100 uM, six hour period. An excerpt:
(§1) Over this time period it was observed that here is a significant, approximately two-fold, increase in the “loading” of CEE in the muscle cells versus CM loading. FIGS. 13 through 15 exemplify the effects of this increased loading of CEE in the C2Cl2 cells under normal and hypoxic conditions. FIGS. 13 through 15 illustrate the results of studies of lactic acid levels in and lactic acid release from C2Cl2 muscle cells. […] The results were gathered over a six hour period of time.

For data set [3], the system named is MDCK monolayers. As to conditions: dog, 1 h.
Data set [4] concerns the target cyclooxygenase 1 (Homo sapiens, UniProt P23219). Briefly: direct inhibition of cyclooxygenase 1. The conditions noted are these: at concentrations used in the current study.
The test system of data set [5] is C2Cl2 Muscle Cells. Briefly: accumulation (loading) of creatine in C2Cl2 muscle cells. As to conditions: 3.2 mg/ml, up to 1 hour at 37 C. The data set is classed as cell-based, mouse.
Source text: as §1

In data set [6] the target is T1, cyclooxygenase 2 (Homo sapiens, UniProt P35354).
T1 sequence (P35354 18-604): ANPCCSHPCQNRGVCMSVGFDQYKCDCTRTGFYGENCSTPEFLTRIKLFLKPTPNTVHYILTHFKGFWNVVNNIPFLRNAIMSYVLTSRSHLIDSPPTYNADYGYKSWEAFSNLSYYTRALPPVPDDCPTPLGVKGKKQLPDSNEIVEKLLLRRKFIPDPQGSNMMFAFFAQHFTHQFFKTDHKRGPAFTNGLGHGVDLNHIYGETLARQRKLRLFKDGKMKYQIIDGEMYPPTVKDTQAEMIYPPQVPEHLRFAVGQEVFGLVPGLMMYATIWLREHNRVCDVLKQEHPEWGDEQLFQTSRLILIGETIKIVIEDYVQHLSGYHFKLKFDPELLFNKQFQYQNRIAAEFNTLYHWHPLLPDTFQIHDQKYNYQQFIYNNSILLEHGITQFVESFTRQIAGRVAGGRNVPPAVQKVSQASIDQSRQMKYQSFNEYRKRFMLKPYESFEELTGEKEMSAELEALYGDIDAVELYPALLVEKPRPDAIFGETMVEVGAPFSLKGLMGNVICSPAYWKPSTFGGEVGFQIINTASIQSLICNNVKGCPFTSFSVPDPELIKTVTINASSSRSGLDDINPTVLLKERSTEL
In words: direct inhibition of cyclooxygenase 2. The conditions noted are these: at concentrations used in the current study.

Data set [7] deals with MDCK monolayers. Briefly: permeability (flux) across MDCK monolayers. As to conditions: over one hour.
For data set [8] the following is noted: gastric pH range of 1-2; cited from earlier work.
The nature of data set [9]: partition coefficient.
For data set [10] the following is noted: of the administered dose; cited from earlier work.
In data set [11] the test system is inflammatory responses produced by carrageenan, 5-hydroxytryptamine, nystatin and formaldehyde. As to conditions: oral; cited from earlier work.

Read-outs that look alike come from different tables or passages of the source.

Chain of cyclooxygenase 1 (P23219 24-599, species assumed): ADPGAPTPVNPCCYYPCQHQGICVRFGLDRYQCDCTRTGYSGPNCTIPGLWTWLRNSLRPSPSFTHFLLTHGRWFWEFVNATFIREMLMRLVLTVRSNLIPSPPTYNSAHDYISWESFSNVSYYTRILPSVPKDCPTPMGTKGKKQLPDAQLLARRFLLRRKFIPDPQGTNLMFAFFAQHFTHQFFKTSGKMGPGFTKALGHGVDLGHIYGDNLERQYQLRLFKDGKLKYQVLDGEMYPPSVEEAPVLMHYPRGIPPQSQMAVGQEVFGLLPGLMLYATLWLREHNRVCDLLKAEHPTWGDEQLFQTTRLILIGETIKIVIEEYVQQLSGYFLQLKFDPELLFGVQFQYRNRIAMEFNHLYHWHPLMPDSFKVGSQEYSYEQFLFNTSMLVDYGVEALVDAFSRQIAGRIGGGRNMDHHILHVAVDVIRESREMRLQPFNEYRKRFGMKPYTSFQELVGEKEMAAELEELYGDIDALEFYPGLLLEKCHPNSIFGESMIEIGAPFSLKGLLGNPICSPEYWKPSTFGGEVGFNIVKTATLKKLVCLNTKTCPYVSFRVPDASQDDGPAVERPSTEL

In the case of `CCOC(=O)CN(C)C(=N)N.Cl` [creatine ethyl ester hydrochloride, Creatine Ethyl Ester Hydrochloride], in [1] (LPS 20 ng/ml, 12 hour exposure), the “concentration giving maximal reduction in PGE2 release” value is 100 µM and the “lowest concentration with reduction in PGE2 release” value stood at 10 µM. Besides, in [1] (LPS 20 ng/ml, 12 hour exposure, co-administration), the “effect on prostaglandin E2 (PGE2) release following LPS exposure” value was “significantly reduced”.

As to `CCOC(=O)CN(C)C(=N)N` [creatine ethyl ester], in data set [2], the “cellular lactic acid levels” value was “marked reduction” and the lactic acid release entry is “marked reduction”. The “flux across MDCK monolayer” value in data set [3] was “approximately 20%”. In data set [4], the “direct inhibition of cyclooxygenase 1” value is recorded as “have not presently revealed an inhibition”. Also, the “increase in loading in muscle cells versus CM loading” value in [5] is “approximately two-fold”. The “magnitude of PGE2 response compared with indomethacin (10 μM)” value in data set [1] (100 μM) is given as “similar”. For the same compound, the “direct inhibition of cyclooxygenase 2” value in [6] was “have not presently revealed an inhibition”.

For the compound `CN(CC(=O)O)C(=N)N` [creatine monohydrate], the “direct inhibition of cyclooxygenase 1” value in data set [4] (monohydrate) is given as “have not presently revealed an inhibition”. In addition, the “magnitude of PGE2 response compared with indomethacin (10 μM)” value in [1] (1000 μM) is reported as “similar”. Moreover, in data set [1] (LPS 20 ng/ml, 12 hour exposure), the “concentration giving maximal reduction in PGE2 release” value is “at least 1000 μM” and the “lowest concentration with reduction in PGE2 release” value was 100 µM. In addition, the “direct inhibition of cyclooxygenase 2” value in data set [6] (monohydrate) is on record as “have not presently revealed an inhibition”. In addition, the “flux across MDCK monolayer” value in [7] is reported as “approximately 10%”.

Turning to `CN(CC(=O)O)C(=N)N` [creatine], the creatinine/creatine ratio result in data set [8] is “greater than or equal to 30”. The Partition in data set [9] is 0.015 +/− 0.007. Also, the “total estimated oral absorption” value in [10] is recorded as ≤ 14%. Further, in [4], the “direct inhibition of cyclooxygenase 1” value is “does not inhibit”. The “suppression of experimentally induced inflammatory responses” value in data set [11] is on record as “orally effective”. For the same compound, the “direct inhibition of cyclooxygenase 2” value in data set [6] was “does not inhibit”.
